Measured values taken from ChEMBL document CHEMBL1201862, “PubChem BioAssay data set” (2004).
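Tested at 5 concentrations; 48 h exposure; 96-well plates; endpoints linearly interpolated, else capped at highest concentration. GI50 = concentration required for 50% inhibition of growth.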 Active and inactive are the calls of the source. Rule as the data show it: active = GI50 up to about 1.1 µM and inactive = higher.

Tests used:
Experiment in all cases: NCI tumour cell line growth inhibition, 48 h
[1] = system: BT-549
[2] = system: NCI-H226
[3] = system: HOP-92
[4] = system: LXFL 529
[5] = system: HOP-18
[6] = system: XF498
[7] = system: DLD-1
[8] = system: RXF 631

Measured: GI50

Nc1nc(=S)[nH]c2nc3c(c(-c4ccccc4)c12)CCCC3
inactive: [1] > 100 µM

C=CC(Br)(CBr)CCC(Cl)C(C)C (configuration not stated)
inactive: [1] 1.6 µM | [2] 7.28 µM | [3] 2.04 µM

CCSc1ncnc2c(C3OC(CO)C(O)C3O)nsc12 (configuration not stated)
inactive: [2] > 100 µM | [3] > 100 µM

COC1CCC(OS(C)(=O)=O)CO1 (configuration not stated)
inactive: [4] > 100 µM | [3] > 100 µM

COc1ccccc1C1C(C(=O)O)=C(CO)Oc2cc3c(cc21)OCO3 (configuration not stated)
inactive: [4] > 100 µM | [5] > 100 µM | [2] > 100 µM | [3] > 100 µM

O=[N+]([O-])c1ccc(Nc2nc3ccccc3s2)cc1
inactive: [1] 27.2 µM | [2] 63 µM | [3] 26.2 µM

O=C(O)C1Cc2c([nH]c3ccccc23)C=N1 (configuration not stated)
inactive: [5] 30.3 µM | [6] > 100 µM | [7] > 100 µM | [3] > 74.1 µM

CC1C/C(=C\c2ccc(O)c(O)c2)C(=O)/C(=C/c2ccc(O)c(O)c2)C1 (configuration not stated)
inactive: [2] 2.86 µM | [3] 6.18 µM

CCCOC(=O)CCC(NC(=O)c1ccc(Nc2nc3ccccc3nc2-c2cccs2)cc1)C(=O)OCCC (configuration not stated)
inactive: [4] > 100 µM | [5] > 100 µM | [6] 79.8 µM | [8] > 100 µM | [2] > 100 µM | [3] 29.2 µM

CCC(C(C)N1CC(=O)NC(=O)C1)N1CC(=O)NC(=O)C1 (configuration not stated)
inactive: [5] > 100 µM | [6] 14.5 µM | [7] > 31.3 µM | [2] 16.1 µM | [3] > 100 µM

NC(=O)OCC1=C(COC(N)=O)C(=O)c2c(O)ccc(O)c2C1=O
inactive: [4] > 100 µM | [5] > 100 µM | [7] > 100 µM | [2] > 100 µM | [3] > 100 µM

Cc1cccc2c1Sc1ccccc1C2NC(=O)CN(C)C (configuration not stated)
inactive: [4] > 100 µM | [6] > 100 µM | [2] > 100 µM

C[N+](C)(N)c1nc(N)c(C#N)c(C#N)c1C#N
inactive: [2] > 10 µM

COc1ccc(NC2=NCCO2)c2ccccc12
inactive: [2] 3.03 µM
